Assay results taken from patent publication US10975083B2, “Blood-brain barrier-penetrant dopamine-β-hydroxylase inhibitors” (BIAL—PORTELA & Cᵃ, S.A., priority 2016, dated 2021).
Like-named read-outs stand apart in the source and are kept apart here.

Target: T1, DβH (Homo sapiens, UniProt P09172)
T1 construct: reaction mixture (total volume 500 μl) contained: cellular homogenate (75 μg total protein); host or cells: SK-N-SH cell homogenate
T1 sequence (P09172 1-617): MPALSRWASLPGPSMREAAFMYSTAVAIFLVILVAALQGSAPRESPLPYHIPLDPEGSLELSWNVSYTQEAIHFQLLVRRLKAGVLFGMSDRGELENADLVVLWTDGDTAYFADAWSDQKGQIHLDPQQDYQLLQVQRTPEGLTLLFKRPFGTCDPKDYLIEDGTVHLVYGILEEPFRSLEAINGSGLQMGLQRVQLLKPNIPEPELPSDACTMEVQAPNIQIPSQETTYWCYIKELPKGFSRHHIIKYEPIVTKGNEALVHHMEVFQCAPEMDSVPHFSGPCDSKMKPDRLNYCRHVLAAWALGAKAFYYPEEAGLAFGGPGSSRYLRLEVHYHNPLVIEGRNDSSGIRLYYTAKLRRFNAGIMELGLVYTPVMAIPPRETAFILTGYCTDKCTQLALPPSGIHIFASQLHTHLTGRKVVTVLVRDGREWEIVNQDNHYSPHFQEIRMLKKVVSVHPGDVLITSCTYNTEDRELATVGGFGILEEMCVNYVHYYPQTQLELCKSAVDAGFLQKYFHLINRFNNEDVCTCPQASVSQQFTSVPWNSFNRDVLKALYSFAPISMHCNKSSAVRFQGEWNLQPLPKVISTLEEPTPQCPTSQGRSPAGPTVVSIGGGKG
Assay: DβH inhibition cell assay (SK-N-SH cellular homogenates, tyramine to octopamine)
Type: biochemical
Conditions: for remaining activity at 0.1 µM: inhibitor 0.1 μM, read-out: DβH activity in % of Ctrl (0.1 μM); for remaining activity at 1 µM: read-out: DβH activity in % of Ctrl (1 μM)
Description: The ability of a compound to inhibit DβH activity may be assessed using the following cell assay. […] . […] Fetal bovine serum was removed from cells for 4 h prior to collection.
For the preparation of cellular homogenates, media was removed and cell monolayers were washed with 50 mM Tris-HCl pH 7.4. Cells were subsequently scrapped off the flasks and were resuspended in 50 mM Tris pH 7.4. Cell suspensions were homogenized with SilentCrusher M (Heidolph) for a short stroke and resultant homogenates were aliquoted and stored frozen at −80° C.
Total protein was quantified in cellular homogenates with BioRad Protein Assay (BioRad) using a standard curve of BSA (50-250 μg/mL).
DβH activity was measured by a modification of the method of Nagatsu and Udenfriend (Nagatsu, T. and S. Udenfriend: “Photometric assay of dopamine-hydroxylase activity in human blood.” Clin. Chem. 18(9): 980-3, 1972) which is based on the enzymatic hydroxylation of tyramine into octopamine. The octopamine formed is subsequently oxidized to p-hydroxybenzaldehyde and measured by spectrophotometry. In brief, reaction mixture (total volume 500 μl) contained: cellular homogenate (75 μg total protein) sodium acetate pH 5.0 (200 mM), NEM (30 mM), CuSO4 (5 μM), catalase aqueous solution (0.5 mg/mL), pargyline-HCl (1 mM), sodium fumarate (10 mM), ascorbic acid (10 mM), inhibitor or vehicle and tyramine (25 mM). After a 10 min pre-incubation period at 37° C., the reaction was initiated by the addition of tyramine. Reaction was carried out for 45 min at 37° C. before termination with 50 μl PCA (2 M).
Samples were centrifuged for 3 min at 16100 g and supernatants were subjected to solid phase extraction. Solid phase extraction was performed using either SPE cartridges ISOLUTE SCX-3 (100 mg, 1 mL) or SPE 2 mL fixed 96 well plates ISOLUTE SCX-3 (100 mg) previously equilibrated with MilliQ water. Columns/plates were centrifuged at 150 g for 2 min. Eluate was discarded and matrix was washed with 1 mL of MilliQ water after which octopamine was eluted with 2×0.25 mL ammonium hydroxide (4 M). The oxidation of octopamine to p-hydroxybenzaldehyde was carried out for 6 min with 100 μl sodium periodate (2%) and was stopped with 100 μl sodium metabisulfite (10%). Absorbance was measured at 330 nm on a Spectramax microplate reader (Molecular Devices, Sunnyvale, Calif.). All enzymatic reactions were performed in duplicate. Results are reported in the table below as activity in % of control at the inhibitor concentration tested.

[1] = inhibitor 1 μM, SK-N-SH cell homogenate

remaining activity at 0.1 µM (SK-N-SH cell homogenate) [%] | remaining activity at 1 µM [1] [%] | remaining activity at 10 µM (inhibitor 10 μM, SK-N-SH cell homogenate, read-out: DβH activity in % of Ctrl (10 μM)) [%] | SMILES | remaining activity at 1 µM [%]
5.2 | 0 | – | Cc1[nH]c(=S)n2c1[C@@H]1C[C@]1(c1c(F)ccc(Br)c1F)C2 [Example 121, (5aS,6aR)-5a-(3-bromo-2,6-difluorophenyl)-1-methyl-5,5a,6,6a-tetrahydrocyclopropa[3,4]pyrrolo[1,2-c]imidazole-3 (2H)-thione] | –
33.8 | 0 | – | Fc1ccc(Br)c(F)c1[C@H]1Cc2c[nH]c(=S)n2C1 [Example 118, (R)-6-(3-bromo-2,6-difluorophenyl)-2,5,6,7-tetrahydro-3H-pyrrolo[1,2-c]imidazole-3-thione] | –
67.5 | 17.2 | – | S=c1[nH]cc2n1C[C@@]1(c3cc(Cl)cc(Cl)c3)C[C@@H]21 [Example 109, (5aS,6aR)-5a-(3,5-dichlorophenyl)-5,5a,6,6a-tetrahydrocyclopropa[3,4]pyrrolo[1,2-c]imidazole-3 (2H)-thione] | –
0 | 0 | – | Fc1ccc(Cl)c(F)c1[C@@H]1Cc2c[nH]c(=S)n2C1 [Example 85, (S)-6-(3-chloro-2,6-difluorophenyl)-2,5,6,7-tetrahydro-3H-pyrrolo[1,2-c]imidazole-3-thione] | –
2 | 0 | – | Fc1c(Cl)cccc1[C@]12C[C@H]1c1c[nH]c(=S)n1C2 [Example 92, (5aS,6aR)-5a-(3-chloro-2-fluorophenyl)-5,5a,6,6a-tetrahydrocyclopropa[3,4]pyrrolo[1,2-c]imidazole-3 (2H)-thione] | –
41.7 | 5.1 | – | Fc1cc(Cl)cc([C@]23C[C@H]2c2c[nH]c(=S)n2C3)c1 [Example 73, (5aS,6aR)-5a-(3-chloro-5-fluorophenyl)-5,5a,6,6a-tetrahydrocyclopropa[3,4]pyrrolo[1,2-c]imidazole-3 (2H)-thione] | –
– | 14.6 | – | Fc1ccc(F)c([C@@]23C[C@@H]2c2c[nH]c(=S)n2C3)c1F [Example 69, (5aR,6aS)-5a-(2,3,6-trifluorophenyl)-5,5a,6,6a-tetrahydrocyclopropa[3,4]pyrrolo[1,2-c]imidazole-3 (2H)-thione] | –
0.5 | 0 | – | Fc1ccc(Br)c(F)c1[C@]12C[C@H]1c1c[nH]c(=S)n1C2 [Example 115, (5aS,6aR)-5a-(3-bromo-2,6-difluorophenyl)-5,5a,6,6a-tetrahydrocyclopropa[3,4]pyrrolo[1,2-c]imidazole-3 (2H)-thione] | –
– | 18.1 | – | Fc1ccc(Cl)c([C@]23C[C@H]2c2c[nH]c(=S)n2C3)c1 [Example 75, (5aS,6aR)-5a-(2-chloro-5-fluorophenyl)-5,5a,6,6a-tetrahydrocyclopropa[3,4]pyrrolo[1,2-c]imidazole-3 (2H)-thione] | –
24.8 | 0 | – | Cn1cc2n(c1=S)C[C@@]1(c3cc(Cl)ccc3F)C[C@@H]21 [Example 116, (5aS,6aR)-5a-(5-chloro-2-fluorophenyl)-2-methyl-5,5a,6,6a-tetrahydrocyclopropa[3,4]pyrrolo[1,2-c]imidazole-3 (2H)-thione] | –
47.5 | 6 | – | Cc1[nH]c(=S)n2c1C[C@H](c1c(F)ccc(Cl)c1F)C2 [Example 104, (R)-6-(3-chloro-2,6-difluorophenyl)-1-methyl-2,5,6,7-tetrahydro-3H-pyrrolo[1,2-c]imidazole-3-thione] | –
84 | 33.1 | – | Fc1cc(F)c(F)c([C@H]2Cc3c[nH]c(=S)n3C2)c1 [Example 83, (R)-6-(2,3,5-trifluorophenyl)-2,5,6,7-tetrahydro-3H-pyrrolo[1,2-c]imidazole-3-thione] | –
21.9 | 1.8 | – | Fc1ccc(Cl)cc1[C@]12C[C@H]1c1c[nH]c(=S)n1C2 [Example 74, (5aS,6aR)-5a-(5-chloro-2-fluorophenyl)-5,5a,6,6a-tetrahydrocyclopropa[3,4]pyrrolo[1,2-c]imidazole-3 (2H)-thione] | –
22 | 0 | – | [2H]C1([2H])n2c(c[nH]c2=S)[C@@H]2C[C@@]21c1cc(Cl)ccc1F [Example 91, (5aS,6aR)-5a-(5-chloro-2-fluorophenyl)-5,5a,6,6a-tetrahydrocyclopropa[3,4]pyrrolo[1,2-c]imidazole-3(2H)-thione-5,5-d2] | –
86.4 | 21.8 | – | Fc1ccc(Br)cc1[C@]12C[C@H]1c1n[nH]c(=S)n1C2 [Example 120, (5aS,6aR)-5a-(5-bromo-2-fluorophenyl)-5,5a,6,6a-tetrahydrocyclopropa[3,4]pyrrolo[2,1-c][1,2,4]triazole-3(2H)-thione] | –

More lines, now with the values behind:

SMILES | remaining activity at 0.1 µM (SK-N-SH cell homogenate) [%] | remaining activity at 1 µM [1] [%] | remaining activity at 10 µM (inhibitor 10 μM, SK-N-SH cell homogenate, read-out: DβH activity in % of Ctrl (10 μM)) [%] | remaining activity at 1 µM [%]
Fc1cc(F)c(F)c([C@]23C[C@H]2c2c[nH]c(=S)n2C3)c1 [Example 63, (5aS,6aR)-5a-(2,3,5-trifluorophenyl)-5,5a,6,6a-tetrahydrocyclopropa[3,4]pyrrolo[1,2-c]imidazole-3 (2H)-thione] | – | 13.9 | – | –
Fc1cccc(F)c1[C@@]12C[C@@H]1c1c[nH]c(=S)n1C2 [Example 65, (5aR,6aS)-5a-(2,6-difluorophenyl)-5,5a,6,6a-tetrahydrocyclopropa[3,4]pyrrolo[1,2-c]imidazole-3(2H)-thione] | – | 17.9 | – | –
N#CCNC(=S)N1CC2CC2(c2cc(F)ccc2F)C1 (stereo not shown) [Example 47, N-(cyanomethyl)-1-(2,5-difluorophenyl)-3-azabicyclo[3.1.0]hexane-3-carbothioamide] | – | 45.3 | – | –
NC(=S)N1CCC(c2ccc(F)c(F)c2F)C1 (stereo not shown) [Example 22, 3-(2,3,4-trifluorophenyl)pyrrolidine-1-carbothioamide] | – | 27.4 | – | –
CCCCc1[nH]c(=S)n2c1C[C@@H](c1cc(F)cc(F)c1)C2 [Example 80, (S)-1-butyl-6-(3,5-difluorophenyl)-6,7-dihydro-2H-pyrrolo[1,2-c]imidazole-3(5H)-thione] | – | – | – | 56.7
Cc1[nH]c(=S)n2c1C[C@@H](c1cc(F)cc(F)c1)C2 [Example 95, (S)-6-(3,5-difluorophenyl)-1-methyl-2,5,6,7-tetrahydro-3H-pyrrolo[1,2-c]imidazole-3-thione] | – | – | – | 28.9
NNC(=S)N1CC2CC2(c2cc(F)cc(F)c2)C1 (stereo not shown) [Example 45, 1-(3,5-Difluorophenyl)-3-azabicyclo[3.1.0]hexane-3-carbothiohydrazide] | – | 29.1 | – | –
Fc1ccc(F)c([C@]23C[C@H]2c2c[nH]c(=S)n2C3)c1F [Example 68, (5aS,6aR)-5a-(2,3,6-trifluorophenyl)-5,5a,6,6a-tetrahydrocyclopropa[3,4]pyrrolo[1,2-c]imidazole-3 (2H)-thione] | – | 5.1 | – | –
Fc1cccc(F)c1[C@]12C[C@H]1c1c[nH]c(=S)n1C2 [Example 64, (5aS,6aR)-5a-(2,6-difluorophenyl)-5,5a,6,6a-tetrahydrocyclopropa[3,4]pyrrolo[1,2-c]imidazole-3(2H)-thione] | 39.9 | 7.2 | – | –
S=C1NCC2CC(c3ccccc3)CN12 (stereo not shown) [Example 44, 6-Phenyltetrahydro-1H-pyrrolo[1,2-c]imidazole-3(2H)-thione] | – | 70.9 | 13.7 | –
